Values joined by “and” are separate entries in the source; they are usually repeats but may differ in a detail not shown here. Equal entries are not always repeated.
Tests used:
Nurr1-LBD [1] = molecular target: T1, Nurr1-LBD (Mus musculus, UniProt Q06219); test: Luciferase reporter assay, Nurr1-LBD, SK-N-BE(2)C cells; format: cell-based; conditions: for Maximum fold activity / EC50: Nurr1 activation; for Maximum fold activity: Supplementary Table 1; for Nurr1 activation (in words): Nurr1 reporter assays
T1 construct: transfected with pCMV-fNurr1, pGAL-Nurr1(LBD), pGAL-Nor1(LBD) or pGAL-Nur77(LBD) and reporter construct; expressed in transfected cells; host or cells: SK-N-BE(2)C (human neuroblastoma), N27-A (rat dopaminergic), MN9D (murine dopaminergic)
Description: Nurr1 transactivity was normalized to β-galactosidase activity.

Nurr1-LBD [2] = molecular target: T2, Nurr1-LBD (Homo sapiens, UniProt P43354); test: [3H]-CQ radioligand competition binding assay; conditions: Fig. 1h
Experimental: Saturation and competition assays were performed as previously described. For saturation assay, 0.2 µM of Nurr1-LBD and 125-10,000 nM of [^3H]-CQ were incubated in binding buffer (20 mM sodium acetate buffer (pH 5.2)) at 4 °C overnight. […] Assay mixtures were applied to GF/B filters (Brandel Inc.) to capture Nurr1-LBD bounded ligands. […] All graphs and IC50 values were generated using the non-linear regression program in GraphPad Prism version 8.0.2.

Nurr1-LBD [3] = molecular target: T2, Nurr1-LBD; test: TR-FRET competition assay with HCQFluo; format: binding; conditions: Fig. 1i
Experimental: TR-FRET assay was performed in PPI Terbium (Tb) detection buffer (PerkinElmer) and contained 0.2 µM of Nurr1-LBD, 0.5 µM of fluorescence-labeled hydroxy-CQ (HCQFluo; Proimaging) and serial concentrations of CQ, 4A7C-301 or RA (10^−4–10^6 nM). Rabbit anti-Nurr1 antibody (3 nM; prepared in our lab) and anti-rabbit IgG-Tb (1:400; Cisbio, 61PARTAF) were included in the assay solution as a donor complex. Assay solutions were loaded in a 384-well OptiPlate™ (PerkinElmer). After 2 h incubation in the dark at room temperature, the FRET signal was measured by excitation at 340 nm and emission at 520 nm for fluorescein and 495 nm for Tb using a VICTOR Nivo plate reader (PerkinElmer). Data were fit using the non-linear regression program in GraphPad Prism version 8.0.2.

[4] = Supplementary Table 1, values given in nM
[5] = Supplementary Table 1, values in µM

T1 sequence (Q06219 360-595 limits assumed): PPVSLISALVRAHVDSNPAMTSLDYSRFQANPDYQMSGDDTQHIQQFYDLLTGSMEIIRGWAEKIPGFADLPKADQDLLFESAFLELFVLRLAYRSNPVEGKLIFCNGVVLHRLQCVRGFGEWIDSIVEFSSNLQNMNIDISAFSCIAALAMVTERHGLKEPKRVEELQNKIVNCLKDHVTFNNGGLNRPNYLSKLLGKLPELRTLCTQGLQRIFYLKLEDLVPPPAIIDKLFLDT
T2 sequence (P43354 360-595 limits assumed, species assumed): as the sequence (Q06219 360-595 limits assumed) above

Row | SMILES | Maximum fold activity (Nurr1-LBD [1]) | EC50 (Nurr1-LBD [1]; [4]) [nM] | EC50 (Nurr1-LBD [1]; [5]) [nM] | further results
1 | CCN1CCN(c2cc(N3CCN(C)CC3)nc(NCCNc3ccnc4cc(Cl)ccc34)n2)CC1 [4A7C-306] | 10.01 ± 0.06 fold | 25.5 ± 42.2 |  | Nurr1 activation (in words) (Nurr1-LBD [1]): good Nurr1 activities
2 | Cc1cc(N(CCNc2ccnc3cc(Cl)ccc23)Cc2cccs2)nc(N2CCOCC2)n1 [4A7C-506] | 4.49 ± 0.43 fold | 9.83 ± 0.29 |  | 
3 | Cc1cc(N2CCOCC2)nc(N(CCNc2ccnc3cc(Cl)ccc23)Cc2cccs2)n1 [4A7C-503] | 2.25 ± 0.26 fold | 1.07 ± 0.12 |  | 
4 | Cc1cc(N2CCN(CCNc3ccnc4cc(Cl)ccc34)CC2)nc(N2CCN(C)CC2)n1 [4A7C-201] | 4.78 ± 0.31 fold | 14.6 ± 1.38 |  | 
5 | Cc1cc(N2CCN(C)CC2)nc(NC2CCCC(Nc3ccnc4cc(Cl)ccc34)C2)n1 (centres unmarked) [4A7C-607] | 4.50 ± 1.59 fold |  | 2230 ± 400 | 
6 | CCN1CCN(c2cc(N3CCOCC3)nc(NCCNc3ccnc4cc(Cl)ccc34)n2)CC1 [4A7C-305] | 7.60 ± 0.08 fold |  | 1040 | Nurr1 activation (in words) (Nurr1-LBD [1]): good Nurr1 activities
7 | Cc1cc(NC2CCCC(Nc3ccnc4cc(Cl)ccc34)C2)nc(N2CCN(c3ccccc3)CC2)n1 (centres unmarked) [4A7C-602] | 3.44 ± 0.28 fold |  | 3860 ± 260 | 
8 | Cc1cc(N(CCNc2ccnc3cc(Cl)ccc23)Cc2cccs2)nc(Cl)n1 [4A7C-502] | 4.99 ± 0.86 fold | 0.51 ± 0.06 |  | 
9 | CCN1CCN(c2cc(Cl)nc(NCCNc3ccnc4cc(Cl)ccc34)n2)CC1 [4A7C-104] | 2.63 ± 0.58 fold | 316 ± 39.8 |  | Nurr1 activation (in words) (Nurr1-LBD [1]): better Nurr1 EC50 than 4A7C-103
10 | Cc1cc(N2CCN(CCNc3ccnc4cc(Cl)ccc34)CC2)nc(N2CCCC2)n1 [4A7C-202] | 3.78 ± 0.25 fold | 1.28 ± 0.63 |  | 
11 | Cc1cc(NC2CCCC(Nc3ccnc4cc(Cl)ccc34)C2)nc(N2CCOCC2)n1 (centres unmarked) [4A7C-605] | 5.71 ± 0.81 fold |  | 1080 ± 370 | 
12 | Cc1cc(N(CCNc2ccnc3cc(Cl)ccc23)Cc2ccc3c(c2)OCO3)nc(N2CCN(C)CC2)n1 [4A7C-501] | 10.51 ± 0.85 fold |  | 3390 ± 260 | 
13 | CCN1CCN(c2nccc(N3CCN(CCNc4ccnc5cc(Cl)ccc45)CC3)n2)CC1 [4A7C-206] | 10.71 ± 0.44 fold |  | 10000 ± 760 | 
14 | Clc1ccc2c(NCCN3CCN(c4ccnc(Cl)n4)CC3)ccnc2c1 [4A7C-203] | 4.22 ± 0.16 fold | 17 ± 4.97 |  | 
15 | Clc1ccc2c(NCCN3CCN(c4nccc(-n5ccnc5)n4)CC3)ccnc2c1 [4A7C-509] | 3.43 ± 0.42 fold | 113 ± 19.2 |  | 
16 | Cc1cc(N2CCN(C)CC2)nc(N(CCNc2ccnc3cc(Cl)ccc23)Cc2cccs2)n1 [4A7C-504] | 4.07 ± 0.53 fold | 431 ± 15.1 |  | 

Row | SMILES | Maximum fold activity (Nurr1-LBD [1]) | EC50 (Nurr1-LBD [1]; [4]) [nM] | EC50 (Nurr1-LBD [1]; [5]) [nM] | further results
17 | CC1=C(/C=C/C(C)=C/C=C/C(C)=C/C(=O)O)C(C)(C)CCC1 [RA, Retinoic acid] |  |  |  | % of Specific binding (Nurr1-LBD [2]; competitor conc. 0.0001 (µM)): 87.8740% and 90.3786% and 97.0000%; % of Specific binding (Nurr1-LBD [2]; competitor conc. 0.001 (µM)): 101.4488% and 96.8455% and 90.6575%; % of Specific binding (Nurr1-LBD [2]; competitor conc. 0.01 (µM)): 93.0895% and 89.2521% and 94.1409%; % of Specific binding (Nurr1-LBD [2]; competitor conc. 0.1 (µM)): 82.0986% and 95.6235% and 83.0156%; % of Specific binding (Nurr1-LBD [2]; competitor conc. 1 (µM)): 87.3597% and 82.6821% and 79.1883%; % of Specific binding (Nurr1-LBD [2]; competitor conc. 10 (µM)): 63.0000% and 75.1862% and 67.5572%; % of Specific binding (Nurr1-LBD [2]; competitor conc. 100 (µM)): 42.2356% and 49.1037% and 43.9315%; % of Specific binding (Nurr1-LBD [2]; competitor conc. 1000 (µM)): 32.2111% and 35.0331% and 30.1369%; % of Specific binding (Nurr1-LBD [2]; competitor conc. 10000 (µM)): 18.6132% and 23.0315% and 23.7161%; % of Specific binding (Nurr1-LBD [2]; competitor conc. 100000 (µM)): 12.2908% and 10.3348% and 16.3962%; % of Specific binding (Nurr1-LBD [2]; competitor conc. 1000000 (µM)): 8.1147% and 11.0894% and 7.4333%; Interaction [HTRF] (Nurr1-LBD [3]; 0.05 µM): 2835.2000 and 2760.8790 and 2798.0390; Interaction [HTRF] (Nurr1-LBD [3]; 0.1 µM): 2218.7830 and 2060.7720 and 2139.7770; Interaction [HTRF] (Nurr1-LBD [3]; 0.5 µM): 1239.9030 and 1522.7770 and 1381.3400; Interaction [HTRF] (Nurr1-LBD [3]; 1 µM): 1217.7040 and 1012.7510 and 1115.2270; Interaction [HTRF] (Nurr1-LBD [3]; 5 µM): 750.0158 and 977.4576 and 863.7367; Interaction [HTRF] (Nurr1-LBD [3]; 10 µM): 824.6545 and 715.3943 and 770.0244; Interaction [HTRF] (Nurr1-LBD [3]; 50 µM): 734.0843 and 751.1574 and 742.6208; Interaction [HTRF] (Nurr1-LBD [3]; 100 µM): 637.6497 and 793.8474 and 715.7485; Interaction [HTRF] (Nurr1-LBD [3]; 200 µM): 603.5579 and 705.9392 and 654.7485
18 | Clc1ccc2c(NCCN3CCN(c4ccnc(N5CCSCC5)n4)CC3)ccnc2c1 [4A7C-204] | 4.46 ± 0.67 fold | 33.7 ± 0.34 |  | 
19 | CCN1CCN(c2nc(C)cc(NCCCNc3ccnc4cc(Cl)ccc34)n2)CC1 [4A7C-102] | 3.68 ± 0.04 fold and 3.68 fold | 143 |  | 
20 | Cc1cc(N2CCSCC2)nc(NC2CCCC(Nc3ccnc4cc(Cl)ccc34)C2)n1 (centres unmarked) [4A7C-606] | 5.72 ± 0.16 fold |  | 1540 ± 360 | 
21 | Cc1cc(N2CCCC2)nc(NC2CCCC(Nc3ccnc4cc(Cl)ccc34)C2)n1 (centres unmarked) [4A7C-604] | 4.24 ± 0.45 fold |  | 1030 ± 420 | 
22 | Cc1cc(NC2CCCC(Nc3ccnc4cc(Cl)ccc34)C2)nc(Cl)n1 (centres unmarked) [4A7C-601] | 3.81 ± 0.17 fold | 110 ± 27.1 |  | 
23 | CCN1CCN(c2cc(N3CCCCC3)nc(NCCNc3ccnc4cc(Cl)ccc34)n2)CC1 [4A7C-304] | 2.16 ± 0.03 fold | 9.67 ± 7.87 |  | Nurr1 activation (in words) (Nurr1-LBD [1]): good Nurr1 activities
24 | Cc1cc(N(CCNc2ccnc3cc(Cl)ccc23)Cc2cccs2)nc(N2CCCCC2)n1 [4A7C-505] | 3.65 ± 0.31 fold | 2.14 ± 0.45 |  | 
25 | CCN1CCN(c2cc(Cl)nc(NCCCNc3ccnc4cc(Cl)ccc34)n2)CC1 [4A7C-103] | 3.52 ± 0.19 fold | 634.5 ± 1.37 |  | Nurr1 activation (in words) (Nurr1-LBD [1]): diminished Nurr1 activity
26 | CCN1CCN(c2cc(C)nc(N(CCNc3ccnc4cc(Cl)ccc34)Cc3cccs3)n2)CC1 [4A7C-507] | 3.24 ± 0.40 fold | 94.9 ± 1.66 |  | 
27 | CCN1CCN(c2nc(NCCCCNc3ccnc4cc(Cl)ccc34)c3ccccc3n2)CC1 [4A7C-401] | 3.01 ± 0.13 fold | 2.62 ± 0.96 |  | 
28 | Cc1cc(NC2CCCC(Nc3ccnc4cc(Cl)ccc34)C2)nc(N2CCCCC2)n1 (centres unmarked) [4A7C-603] | 6.84 ± 0.52 fold |  | 1220 ± 20 | 
29 | Cc1cc(N2CCN(c3ccccc3)CC2)nc(NC2CCCC(Nc3ccnc4cc(Cl)ccc34)C2)n1 (centres unmarked) [4A7C-608] | 6.31 ± 0.82 fold |  | 1140 ± 130 | 
30 | Cc1cc(N2CCCCC2)nc(NC2CCCC(Nc3ccnc4cc(Cl)ccc34)C2)n1 (centres unmarked) [4A7C-609] | 4.83 ± 0.51 fold |  | 1190 ± 610 | 
31 | CCN1CCN(c2cc(NCCNc3ccnc4cc(Cl)ccc34)nc(N3CCN(CC)CC3)n2)CC1 [4A7C-303] | 9.50 ± 0.22 fold | 8.5 ± 18.6 |  | Nurr1 activation (in words) (Nurr1-LBD [1]): good activity
